Experiment in all cases: KINOMEscan competition binding
Holding throughout (settings): compound 10.0 µM

For assay [1], the system named is ABL1 (human), P00519 [E255K].
For assay [2], the system named is ABL1 (human), P00519 [M351T].
Assay [3] deals with ABL1 (human), P00519 [Q252H].
Assay [4] has as its system ABL1 (human), P00519 [T315I].
Assay [5] deals with EGFR (human), P00533 [746-750 del].
The subject of assay [6] is EGFR (human), P00533 [G719S].
Assay [7] deals with EGFR (human), P00533 [L861Q].
Assay [8] has as its system EGFR (human), P00533 [P753S; 747-752 del].
Assay [9] relates to EIF2AK4 KD2 (human), Q9P2K8 [S808G].
Sequence of EIF2AK4 KD2 (human), Q9P2K8 [S808G] (Q9P2K8 whole entry S808G, looked up): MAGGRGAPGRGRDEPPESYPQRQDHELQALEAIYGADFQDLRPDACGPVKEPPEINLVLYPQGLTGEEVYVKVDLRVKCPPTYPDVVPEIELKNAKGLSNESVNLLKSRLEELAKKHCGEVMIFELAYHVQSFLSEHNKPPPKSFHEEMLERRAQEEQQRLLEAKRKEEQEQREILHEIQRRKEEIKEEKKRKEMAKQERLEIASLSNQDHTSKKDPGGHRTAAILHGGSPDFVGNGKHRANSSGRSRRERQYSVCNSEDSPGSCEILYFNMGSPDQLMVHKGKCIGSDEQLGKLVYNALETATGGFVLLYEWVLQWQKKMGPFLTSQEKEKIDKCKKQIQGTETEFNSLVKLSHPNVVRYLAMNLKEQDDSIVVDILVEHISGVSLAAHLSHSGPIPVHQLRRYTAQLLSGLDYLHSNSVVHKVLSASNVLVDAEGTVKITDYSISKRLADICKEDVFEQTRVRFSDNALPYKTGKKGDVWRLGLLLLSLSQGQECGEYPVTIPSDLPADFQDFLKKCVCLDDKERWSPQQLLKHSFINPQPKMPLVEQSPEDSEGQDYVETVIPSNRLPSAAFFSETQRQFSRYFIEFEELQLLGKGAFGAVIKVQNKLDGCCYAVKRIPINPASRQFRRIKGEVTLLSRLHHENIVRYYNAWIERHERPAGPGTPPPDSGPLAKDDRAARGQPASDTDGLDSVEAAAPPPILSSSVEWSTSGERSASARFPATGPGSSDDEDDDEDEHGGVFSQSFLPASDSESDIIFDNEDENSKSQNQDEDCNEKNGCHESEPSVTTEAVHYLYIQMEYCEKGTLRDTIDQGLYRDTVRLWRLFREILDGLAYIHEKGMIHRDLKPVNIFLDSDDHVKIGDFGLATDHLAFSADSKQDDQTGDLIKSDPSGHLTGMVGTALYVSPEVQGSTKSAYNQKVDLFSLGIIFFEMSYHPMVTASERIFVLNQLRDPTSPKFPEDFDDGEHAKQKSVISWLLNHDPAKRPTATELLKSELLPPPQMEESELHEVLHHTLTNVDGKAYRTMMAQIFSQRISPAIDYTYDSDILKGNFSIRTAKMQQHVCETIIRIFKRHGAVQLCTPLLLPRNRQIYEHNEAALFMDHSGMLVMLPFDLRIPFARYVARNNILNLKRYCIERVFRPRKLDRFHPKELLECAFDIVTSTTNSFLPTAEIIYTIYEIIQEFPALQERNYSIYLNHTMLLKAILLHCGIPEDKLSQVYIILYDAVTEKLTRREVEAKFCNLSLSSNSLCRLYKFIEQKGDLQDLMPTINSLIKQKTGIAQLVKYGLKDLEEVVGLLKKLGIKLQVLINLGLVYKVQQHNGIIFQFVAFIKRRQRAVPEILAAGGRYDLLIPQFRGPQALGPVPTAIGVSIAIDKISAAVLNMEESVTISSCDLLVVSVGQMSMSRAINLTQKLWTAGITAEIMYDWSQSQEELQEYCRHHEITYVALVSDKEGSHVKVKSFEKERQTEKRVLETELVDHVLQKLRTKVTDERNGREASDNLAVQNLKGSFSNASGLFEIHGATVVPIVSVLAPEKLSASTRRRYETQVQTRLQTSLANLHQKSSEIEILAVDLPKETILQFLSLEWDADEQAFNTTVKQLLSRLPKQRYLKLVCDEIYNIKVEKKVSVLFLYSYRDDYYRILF
For assay [10], the system named is FLT3 (human), P36888 [ITD].
Assay [11] relates to FLT3 (human), P36888 [K663Q].
The subject of assay [12] is FLT3 (human), P36888 [N841I].
For assay [13], the system named is KIT (human), P10721 [D816V].
Sequence of KIT (human), P10721 [D816V] (P10721 whole entry D816V, looked up): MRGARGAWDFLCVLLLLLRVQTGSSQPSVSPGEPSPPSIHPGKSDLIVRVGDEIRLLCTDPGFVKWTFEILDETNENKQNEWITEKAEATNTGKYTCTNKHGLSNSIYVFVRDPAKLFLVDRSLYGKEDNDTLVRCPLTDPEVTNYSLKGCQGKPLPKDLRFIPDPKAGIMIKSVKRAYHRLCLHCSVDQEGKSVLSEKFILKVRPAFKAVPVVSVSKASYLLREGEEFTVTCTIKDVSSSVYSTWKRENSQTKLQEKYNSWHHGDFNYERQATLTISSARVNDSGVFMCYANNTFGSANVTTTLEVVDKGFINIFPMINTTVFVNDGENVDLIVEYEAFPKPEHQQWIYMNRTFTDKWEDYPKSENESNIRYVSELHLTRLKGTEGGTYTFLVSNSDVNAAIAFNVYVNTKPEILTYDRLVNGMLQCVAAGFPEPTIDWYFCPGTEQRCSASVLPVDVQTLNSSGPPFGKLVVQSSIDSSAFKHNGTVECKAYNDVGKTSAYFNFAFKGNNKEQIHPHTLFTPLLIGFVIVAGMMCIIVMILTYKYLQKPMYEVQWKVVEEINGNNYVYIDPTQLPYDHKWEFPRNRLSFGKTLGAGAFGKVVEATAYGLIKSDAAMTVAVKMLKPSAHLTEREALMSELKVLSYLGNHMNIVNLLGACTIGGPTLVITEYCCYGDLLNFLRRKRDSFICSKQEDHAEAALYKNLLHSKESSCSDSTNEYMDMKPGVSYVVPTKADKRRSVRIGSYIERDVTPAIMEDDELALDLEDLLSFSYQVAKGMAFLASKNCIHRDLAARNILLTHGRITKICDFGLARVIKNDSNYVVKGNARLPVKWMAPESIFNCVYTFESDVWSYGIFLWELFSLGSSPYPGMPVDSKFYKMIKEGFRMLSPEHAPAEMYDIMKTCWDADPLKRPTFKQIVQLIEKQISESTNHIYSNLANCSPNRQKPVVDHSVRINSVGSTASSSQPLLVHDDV
Assay [14] has as its system KIT (human), P10721 [V559D/T670I].
In assay [15] the test system is KIT (human), P10721 [V559D].
Sequence of KIT (human), P10721 [V559D] (P10721 whole entry V559D, looked up): as the sequence (P10721 whole entry D816V, looked up) above, with V559D, V816D counted along it
The subject of assay [16] is PIK3CA (human), P42336 [E545K].
Assay [17] relates to PIK3CA (human), P42336 [C420R].
Sequence of PIK3CA (human), P42336 [C420R] (P42336 whole entry C420R, looked up): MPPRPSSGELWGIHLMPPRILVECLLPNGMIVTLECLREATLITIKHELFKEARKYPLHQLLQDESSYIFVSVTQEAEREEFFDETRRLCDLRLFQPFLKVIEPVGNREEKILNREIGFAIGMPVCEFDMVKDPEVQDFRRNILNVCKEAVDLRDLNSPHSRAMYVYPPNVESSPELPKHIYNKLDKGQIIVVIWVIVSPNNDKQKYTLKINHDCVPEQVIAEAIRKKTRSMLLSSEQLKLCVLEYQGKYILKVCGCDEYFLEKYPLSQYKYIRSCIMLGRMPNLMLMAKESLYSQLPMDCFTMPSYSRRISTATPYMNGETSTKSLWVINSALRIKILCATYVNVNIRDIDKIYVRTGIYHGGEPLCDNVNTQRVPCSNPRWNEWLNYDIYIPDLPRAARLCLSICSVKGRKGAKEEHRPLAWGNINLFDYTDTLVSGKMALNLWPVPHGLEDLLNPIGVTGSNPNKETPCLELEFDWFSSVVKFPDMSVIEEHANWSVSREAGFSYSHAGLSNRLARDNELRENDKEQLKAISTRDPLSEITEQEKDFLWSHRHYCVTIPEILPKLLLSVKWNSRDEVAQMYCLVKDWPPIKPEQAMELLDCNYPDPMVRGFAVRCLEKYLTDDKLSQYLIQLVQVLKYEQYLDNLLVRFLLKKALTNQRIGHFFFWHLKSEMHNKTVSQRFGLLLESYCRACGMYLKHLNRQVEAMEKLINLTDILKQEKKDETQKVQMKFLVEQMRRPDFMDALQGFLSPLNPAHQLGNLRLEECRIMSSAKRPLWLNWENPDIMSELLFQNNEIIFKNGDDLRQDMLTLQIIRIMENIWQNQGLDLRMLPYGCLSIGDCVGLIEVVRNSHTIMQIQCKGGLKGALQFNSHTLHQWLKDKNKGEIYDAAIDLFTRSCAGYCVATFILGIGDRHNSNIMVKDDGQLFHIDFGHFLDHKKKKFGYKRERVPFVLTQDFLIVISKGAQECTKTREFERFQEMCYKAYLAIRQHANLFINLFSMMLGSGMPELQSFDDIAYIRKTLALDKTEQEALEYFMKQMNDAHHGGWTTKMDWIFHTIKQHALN
In assay [18] the test system is PIK3CA (human), P42336 [E545A].
Sequence of PIK3CA (human), P42336 [E545A] (P42336 whole entry E545A, looked up): as the sequence (P42336 whole entry C420R, looked up) above, with R420C, E545A counted along it
Assay [19] concerns PIK3CA (human), P42336 [H1047Y].
Sequence of PIK3CA (human), P42336 [H1047Y] (P42336 whole entry H1047Y, looked up): as the sequence (P42336 whole entry C420R, looked up) above, with R420C, H1047Y counted along it
For assay [20], the system named is PIK3CA (human), P42336 [I800L].
Sequence of PIK3CA (human), P42336 [I800L] (P42336 whole entry I800L, looked up): as the sequence (P42336 whole entry C420R, looked up) above, with R420C, I800L counted along it
Assay [21] concerns PIK3CA (human), P42336 [Q546K].
Sequence of PIK3CA (human), P42336 [Q546K] (P42336 whole entry Q546K, looked up): as the sequence (P42336 whole entry C420R, looked up) above, with R420C, Q546K counted along it

This passage reports kinase still bound, per cent of control results from the kinase profiling compilation of Christmann-Franck et al. (2016).

Sequence of PIK3CA (human), P42336 [E545K] (P42336 whole entry E545K, looked up): as the sequence (P42336 whole entry C420R, looked up) above, with R420C, E545K counted along it
Sequence of KIT (human), P10721 [V559D/T670I] (P10721 whole entry V559D/T670I, looked up): as the sequence (P10721 whole entry D816V, looked up) above, with V559D, T670I, V816D counted along it

`COc1cc(C)c(Sc2cnc(NC(=O)c3ccc(CNC(C)C(C)C)cc3)s2)cc1C(=O)N1CCN(C(C)=O)CC1` (configuration not stated): the kinase still bound, per cent of control in assay [1] was found to be 100%; in [2], 100%; in assay [3] it was 100%; in assay [4] it was 19%; in assay [5] it was 100%; in assay [6], 100%. The kinase still bound, per cent of control was 100% in assay [7]; 100% in assay [8]; 100% in assay [9]; 100% in assay [10]; 100% in assay [11]; 16% in [12]. Moreover, the kinase still bound, per cent of control in assay [13], in assay [14], in assay [15] and in assay [16] was 100% each time.

`Cc1n[nH]c2ccc(-c3cncc(OC[C@@H](N)Cc4c[nH]c5ccccc45)c3)cc12`: the kinase still bound, per cent of control in assay [1] came to 100%; in [2] it was 100%; in assay [3], 100%; in assay [4] it was 100%; in [9], 100%; in assay [10], 0.1%. In addition, the kinase still bound, per cent of control was 3.8% in assay [11]; 0.1% in assay [12]; 1.1% in assay [13]; 100% in [14]; 100% in assay [15]; 100% in assay [16].

For `COc1ccc(N(C(=O)Oc2cc(C(=O)Nc3cccc(C(F)(F)F)c3)ccc2C)c2ccnc(Nc3ccc(N4CCN(C)CC4)cc3)n2)c(OC)c1`, the kinase still bound, per cent of control in assay [1] is 7.2%; in assay [2], 1.4%; in [3] it was 1.8%; in assay [4], 0.45%; in assay [5], 6.1%; in [6], 18%. In addition, the kinase still bound, per cent of control turned out to be 1% in assay [7]; 2.5% in assay [8]; 100% in assay [9]; 100% in assay [10]; 29% in assay [12]; 0.75% in [13]. The kinase still bound, per cent of control came out at 3.8% in assay [14], 0.5% in assay [15] and 100% in assay [16].

Turning to `CNC(=O)c1ccc(Nc2cc(Nc3ccccc3S(=O)(=O)C(C)C)c3cc[nH]c3n2)nc1`, the kinase still bound, per cent of control came to 20% in assay [1]; 7.9% in assay [2]; 11% in [3]; 0% in [4]; 100% in assay [5]; 100% in assay [6]. Also, the kinase still bound, per cent of control amounted to 100% in assay [7]; 100% in assay [8]; 100% in assay [9]; 0.25% in [10]; 2.6% in assay [11]; 0.35% in [12]. Further, the kinase still bound, per cent of control in assay [13] was determined as 4.5%; in [14], 22%; in assay [15] it was 18%; in assay [16] it was 4.7%.

For the molecule `CCN(CC)CCCCNc1ncc2cc(-c3cc(OC)cc(OC)c3)c(NC(=O)NC(C)(C)C)nc2n1`, the kinase still bound, per cent of control in [1], in [2], in assay [3], in assay [4], in [9] and in assay [10] was 100% in each case. For the same molecule, the kinase still bound, per cent of control in assay [12], in [13], in assay [14], in assay [15] and in assay [16] was 100% each time.

For `COc1cc2c(Nc3ccc(NC(=O)c4ccccc4)cc3)ncnc2cc1OCCCN1CCOCC1`, the kinase still bound, per cent of control stood at 45% in [1]; 32% in [2]; 36% in [5]; 0.5% in assay [6]; 6.2% in [7]; 41% in [8]. The kinase still bound, per cent of control stood at 43% in assay [9]; 45% in [10]; 4% in assay [11]; 6% in [12]; 42% in assay [13]; 1.9% in assay [14]. In addition, the kinase still bound, per cent of control in assay [15] amounted to 0%; in [17], 68%; in assay [18] it was 19%; in assay [16] it was 98%; in assay [19] it was 24%; in [20], 100%. This molecule displayed a kinase still bound, per cent of control in [21] of 17%.

As for `CCN1CCN(C(=O)Cc2ccc(Nc3ncc(F)c(Nc4ccc(C(=O)Nc5ccccc5Cl)cc4)n3)cc2)CC1`, the kinase still bound, per cent of control in assay [1] turned out to be 6.2%; in assay [2], 19%; in assay [5], 48%; in assay [6] it was 78%; in assay [7], 52%; in assay [8], 38%. In addition, the kinase still bound, per cent of control in [9] was determined as 0.4%; in assay [10], 0.1%; in assay [11], 0.4%; in assay [12] it was 0%; in assay [13], 0.75%; in assay [14], 21%. Also, the kinase still bound, per cent of control came to 0.5% in assay [15]; 57% in assay [17]; 25% in assay [18]; 97% in assay [16]; 62% in assay [19]; 88% in [20]. In assay [21], this molecule returned a kinase still bound, per cent of control of 23%.

With `CNC(=O)Nc1ccc(-c2nc(N3CC4CCC(C3)O4)c3cnn(C4CCC5(CC4)OCCO5)c3n2)cc1`, the kinase still bound, per cent of control in assay [1] is 100%; in [2], 100%; in assay [5] it was 38%; in assay [6], 69%; in assay [7] it was 64%; in assay [8] it was 62%. Besides, the kinase still bound, per cent of control in assay [9] is 83%; in assay [10], 100%; in [11], 69%; in assay [12], 89%; in [13] it was 82%; in assay [14] it was 100%. The kinase still bound, per cent of control in assay [15] was found to be 85%; in assay [17], 11%; in assay [18], 8.8%; in assay [16], 11%; in assay [19], 9.6%; in [20], 5%. For the same molecule, in [21], the kinase still bound, per cent of control turned out to be 11%.
